This is an account of results in PubChem BioAssay AID1361 (SRMLSC, 2008).

This assay can be described thus: blockers of mitochondrial fusion, WT vs mutant – cell-based, chemical genetic, wild-type and mutant, confirmation (AID 1361). The following applies: Cell-based mitochondrial fusion phenotype, imaging.
The mark [1] stands for this setting: mutant cells, measured here: mutant cell line IC50.

The structures appear in SMILES notation. Calls of active or inactive are those of the source. How the calls were made is not given here.

As for `CC1CN(c2oc(Cc3cccc4ccccc34)nc2C#N)CC(C)O1` (stereo not drawn), the IC50 (WT cells) was > 25 µM (inactive) and the IC50 under setting [1] was > 25 µM.

For the compound `COc1ccccc1N=Nc1nc(-c2ccccc2)c(-c2ccccc2)[nH]1`, the concentration for half-maximal inhibition (IC50) was 7.2 µM (WT cells) and 17.4 µM under setting [1].

Take `CCCN(CCC)CCCNC(=O)CS(=O)Cc1nc(-c2ccc(OC)c(OC)c2)oc1C` (stereo not drawn): the IC50 by setting is: (WT cells) > 25 µM (inactive); under setting [1], > 25 µM.

Turning to `O=C(NCc1ccco1)c1cccnc1-c1nc2ccccc2s1`, the IC50 is > 25 µM (inactive) (WT cells) and > 25 µM under setting [1].

In the case of `CCCCCc1nc2sc3c(c2c(=O)n1NC(=O)c1ccc([N+](=O)[O-])cc1)CC(C)(C)OC3`, the IC50 is 15.5 µM (WT cells) and > 25 µM under setting [1].

Turning to `CCS(=O)(=O)Nc1ccc(-c2cc(-c3ccccc3)c3cc(C)ccc3n2)cc1`, the 50% inhibitory concentration (IC50) (WT cells) is 7.26 µM and the half-maximal inhibitory concentration (IC50) under setting [1] is > 25 µM.

In the case of `CCCCOc1c(Br)cc(/C=N/O)cc1OCC`, the IC50 is > 25 µM (inactive) (WT cells) and > 25 µM under setting [1].

Take `CS(=O)(=O)c1nc2ccccc2n1Cc1ccccc1`: the IC50 was > 25 µM (inactive) (WT cells) and > 25 µM under setting [1].

With `Clc1ccc2c(c1)C(c1ccccc1Cl)=NCc1nnc(N3CCN(CCOc4ccccc4)CC3)n1-2`, the concentration for half-maximal inhibition (IC50) reads like this: (WT cells) 23.7 µM; under setting [1], > 25 µM.

Consider `Cc1nnc(NC(=O)c2sc3nc(-c4cccs4)cc(C(F)(F)F)c3c2N)s1`, for which the IC50 (WT cells) was > 25 µM (inactive) and the IC50 under setting [1] was > 25 µM.

With `O=c1cc(N2CCCCC2)c(-c2ccccc2)nn1Cc1ccc(F)cc1`, the half-inhibitory concentration (IC50) (WT cells) was 17.4 µM and the IC50 under setting [1] was > 25 µM.

Regarding `O=C(Nc1ccc(C(F)(F)F)cc1)c1cc(S(=O)(=O)NCC2COc3ccccc3O2)ccc1F` (stereo not drawn), the IC50 is, setting by setting: (WT cells) 15.2 µM; under setting [1], > 25 µM.

With `COc1ccccc1/C=C/C=N\N1CCN(Cc2ccccc2Cl)CC1`, the concentration for half-maximal inhibition (IC50) by setting is: (WT cells) 20.9 µM; under setting [1], > 25 µM.

`Cc1ccc(-c2nnc(SCC(=O)N3CCOCC3)nc2-c2ccc(C)cc2)cc1`: the IC50 is, setting by setting: (WT cells) > 25 µM (inactive); under setting [1], > 25 µM.

On to `CCCc1cc(-c2nc(N)ncc2-c2ccc3c(c2)OCCCO3)c(O)cc1OC`, for which the concentration for half-maximal inhibition (IC50) (WT cells) is 14 µM and the IC50 under setting [1] was > 25 µM.

For the compound `COC(=O)CP(=O)(c1ccccc1)c1ccccc1`, the IC50 is > 25 µM (inactive) (WT cells) and > 25 µM under setting [1].

As for `CCCc1c(C)[nH]c2ccc(NC(C)=O)cc2c1=O`, the IC50 is, setting by setting: (WT cells) > 25 µM (inactive); under setting [1], > 25 µM.

As for `COc1ccc(NS(=O)(=O)c2ccc3oc(Nc4ccc5c(c4)OCCO5)nc3c2)cc1`, the IC50 was 17.6 µM (WT cells) and > 25 µM under setting [1].

For `CCn1c(CCCOc2ccc(Cl)cc2Cl)nnc1SCC(=O)Nc1cc(F)ccc1C`, the IC50 reads like this: (WT cells) 15.9 µM; under setting [1], > 25 µM.

In the case of `COCCn1c(SCc2cc(C(C)=O)ccc2OC)nc2cc(Cl)ccc2c1=O`, the concentration for half-maximal inhibition (IC50) (WT cells) was 8.09 µM and the IC50 under setting [1] was > 25 µM.

As to `CN(C)S(=O)(=O)c1cccc(C(=O)NCC2CCCO2)c1` (stereo not drawn), the IC50 (WT cells) is > 25 µM (inactive) and the IC50 under setting [1] was > 25 µM.

Consider `Cc1csc(NC(=O)c2cccn2C)n1`, for which the IC50 (WT cells) was > 25 µM (inactive) and the IC50 under setting [1] was > 25 µM.

`CC(NC(=O)COc1ccccc1-c1ccccc1)c1ccccc1` (stereo not drawn): the IC50 is 15 µM (WT cells) and > 25 µM under setting [1].

Turning to `CC(C)(C)NC(=O)NC(=O)COC(=O)Cc1coc2ccc3ccccc3c12`, the half-maximal inhibitory concentration (IC50) (WT cells) is 21.2 µM and the IC50 under setting [1] is > 25 µM.

As to `O=C(CN1CCN(S(=O)(=O)c2ccc(Cl)s2)CC1)NCc1ccc(Cl)cc1`, the IC50 is > 25 µM (inactive) (WT cells) and > 25 µM under setting [1].

As for `CC(=O)Nc1cccc(Oc2ncnc3scc(-c4ccc(C(C)C)cc4)c23)c1`, the IC50 (WT cells) was 14.5 µM and the concentration for half-maximal inhibition (IC50) under setting [1] was > 25 µM.

Consider `N#CCCN(CCC#N)c1nnc(-c2ccccc2)s1`, for which the IC50 by setting is: (WT cells) > 25 µM (inactive); under setting [1], > 25 µM.

On to `Oc1cccc(C2c3[nH]c4ccccc4c3CCN2Cc2cnn(-c3ccccc3)c2)c1` (stereo not drawn), for which the IC50 was > 25 µM (inactive) (WT cells) and > 25 µM under setting [1].

On to `CC(=O)N(C)c1ccc(OCC(O)Cn2c3ccc(Cl)cc3c3cc(Cl)ccc32)cc1` (stereo not drawn), for which the half-maximal inhibitory concentration (IC50) by setting is: (WT cells) 4.12 µM; under setting [1], > 25 µM.

Take `CCOC(=O)c1c(NC(=O)CN2CCN(C(=O)c3ccco3)CC2)sc2c1CCCC2`: the IC50 is, setting by setting: (WT cells) 23.2 µM; under setting [1], > 25 µM.

With `CC(C)CNS(=O)(=O)c1ccc(S(=O)(=O)N2CCCN(Cc3ccccc3)C2)cc1`, the IC50 reads like this: (WT cells) > 25 µM (inactive); under setting [1], > 25 µM.

Turning to `COC(=O)CCC(=O)COc1ccc(OC)cc1C#N`, the IC50 by setting is: (WT cells) > 25 µM (inactive); under setting [1], > 25 µM.

On to `COC(=O)CN1C(c2cccc(Cl)c2)=Nc2ccc(Cl)cc2C1c1ccccc1` (stereo not drawn), for which the IC50 runs as follows: (WT cells) 7.73 µM; under setting [1], 24 µM.

For `O=C(Nc1nnc(C2CC2)s1)c1cc(-c2ccccc2)nn1-c1ccccc1`, the half-inhibitory concentration (IC50) reads like this: (WT cells) 8.41 µM; under setting [1], 17 µM.

Turning to `COC(=O)c1c(NC(=O)CN2CCC3(O)CCCCC3C2c2ccc(F)cc2)sc(C)c1C` (stereo not drawn), the IC50 runs as follows: (WT cells) 14.4 µM; under setting [1], > 25 µM.

Regarding `CC1Cc2ccccc2N1C(=O)Cn1c(=O)cc(O)c2ccccc21` (stereo not drawn), the IC50 by setting is: (WT cells) > 25 µM (inactive); under setting [1], > 25 µM.

As to `Cc1ccc(C(c2nnnn2CCc2ccccc2)N2CCC(C)CC2)cc1` (stereo not drawn), the IC50 is > 25 µM (inactive) (WT cells) and > 25 µM under setting [1].

As for `CCOC(=O)c1c(NC(=O)C2CCN(S(=O)(=O)c3cccs3)CC2)sc(C)c1C`, the IC50 is > 25 µM (inactive) (WT cells) and > 25 µM under setting [1].

Regarding `Cc1ccc2nc(NCCCNC(=O)c3cnccn3)c(C#N)cc2c1`, the IC50 (WT cells) was > 25 µM (inactive) and the IC50 under setting [1] is > 25 µM.

`O=C(N=Nc1c(O)n(Cc2ccccc2)c2ccccc12)c1cc2ccccc2cc1O`: the IC50 is > 25 µM (inactive) (WT cells) and > 25 µM under setting [1].

As to `O=C(O)Cn1c(CC(=O)N2CCCC2)nc2ccccc21`, the IC50 runs as follows: (WT cells) > 25 µM (inactive); under setting [1], > 25 µM.

Consider `COC(=O)C1=CN(CCOC23CC4CC(CC(C4)C2)C3)C=C(C(=O)OC)C1c1ccsc1`, for which the IC50 was 17 µM (WT cells) and > 25 µM under setting [1].

With `Cc1cc(C)n(CC(O)Cn2c3ccc(Cl)cc3c3cc(Cl)ccc32)c(=O)n1` (stereo not drawn), the half-maximal inhibitory concentration (IC50) (WT cells) is 16.6 µM and the IC50 under setting [1] is > 25 µM.

Consider `O=C(CSc1nc2cc(Cl)ccc2o1)NCCc1ccccc1`, for which the IC50 was > 25 µM (inactive) (WT cells) and > 25 µM under setting [1].

On to `CC(C)CN(C(=O)c1nn(C)c(=O)c2ccccc12)c1nc2ccccc2s1`, for which the IC50 by setting is: (WT cells) 21.9 µM; under setting [1], > 25 µM.

Take `O=S(=O)(NCC(Nc1ccc(Cl)cc1)c1ccccc1)c1ccc(Cl)cc1` (stereo not drawn): the IC50 was > 25 µM (inactive) (WT cells) and > 12.5 µM under setting [1].

In the case of `COc1ccc(NC(=S)N(CCCN2CCCC2)Cc2cccn2Cc2ccc(Cl)cc2)cc1Cl`, the IC50 runs as follows: (WT cells) 10.9 µM; under setting [1], 23.2 µM.

Take `COc1ccc(/C=N/N(Cc2ccccc2)c2ccccc2)cc1O`: the IC50 by setting is: (WT cells) 11.6 µM; under setting [1], > 25 µM.

Turning to `O=C(c1csc(Nc2ccccc2Cl)n1)N1CCCC1`, the IC50 is, setting by setting: (WT cells) > 25 µM (inactive); under setting [1], > 25 µM.
